# Measured values taken from US8143227B2, “Azithromycin for treatment of skin disorders” (priority 2008, dated 2012).
# Columns and labels:
# [1] = Azithromycin levels in skin (follicular biopsy); format: in vivo, human; conditions: for Skin Concentration (median): follicular biopsy
# Protocol: Standardized follicular biopsy samples, representative of the pilosebaceous unit of the skin, were obtained from the upper back from each of the subjects of Example 1 on study days 0, 21, 42, and 70. The samples were analyzed to determine the tissue level of azithromycin in each biopsy sample.
# [2] = system: acne; conditions: Kus 2005, cited from earlier work
smiles,measurement,setting,value
"CC[C@H]1OC(=O)[C@H](C)[C@@H](O[C@H]2C[C@@](C)(OC)[C@@H](O)[C@H](C)O2)[C@H](C)[C@@H](O[C@@H]2O[C@H](C)C[C@H](N(C)C)[C@H]2O)[C@](C)(O)C[C@@H](C)CN(C)[C@H](C)[C@@H](O)[C@]1(C)O [Azithromycin, 9-deoxo-9a-aza-9a-methyl-9a-homoerythromycin A]",clearance of azithromycin from the pilosebaceous apparatus,[1]; after attaining saturation or near saturation levels,more than 28 days
same,Skin Concentration (median),"[1]; 40 mg/day, Day 0",0.00 ng/sample
same,Skin Concentration (median),"[1]; 40 mg/day, Day 21",0.34 ng/sample
same,Skin Concentration (median),"[1]; 40 mg/day, Day 42",0.59 ng/sample
same,Skin Concentration (median),"[1]; 40 mg/day, Day 70 (28 days after last dose)",0.00 ng/sample
same,Skin Concentration (median),"[1]; 80 mg/day, Day 0",0.00 ng/sample
same,Skin Concentration (median),"[1]; 80 mg/day, Day 21",1.34 ng/sample
same,Skin Concentration (median),"[1]; 80 mg/day, Day 42",1.68 ng/sample
same,Skin Concentration (median),"[1]; 80 mg/day, Day 70 (28 days after last dose)",0.47 ng/sample
same,Skin Concentration (median),"[1]; 120 mg/day, Day 0",0.00 ng/sample
same,Skin Concentration (median),"[1]; 120 mg/day, Day 21",1.65 ng/sample
same,Skin Concentration (median),"[1]; 120 mg/day, Day 42",1.99 ng/sample
same,Skin Concentration (median),"[1]; 120 mg/day, Day 70 (28 days after last dose)",0.50 ng/sample
same,time to effective steady state level of azithromycin in skin,"[1]; low doses, following commencement of therapy, no initial spike dose",≤ 20 days
same,"dosage at which the skin becomes saturated, theorized from the data",[1]; theorized from Table 3 data,about 95 mg/day
same,efficacy in the treatment of acne,"[2]; 500 mg 3, then 2 consecutive days per week, then once weekly, 4 weeks each",as effective as doxycycline
same,subjects who left the study due to gastrointestinal side effects,[2]; of 25 subjects administered azithromycin,two
